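Compound exposure: 48 hours, 5 concentrations, 96-well plates. At the TGI there is no net growth.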
Assays:
Test in all cases: inhibition of tumour cell growth, NCI panel, 48 h
[1] = test system: MDA-MB-231 breast
[2] = test system: UO-31 renal
[3] = test system: A549 NSCLC
[4] = test system: HL-60(TB) leukemia
[5] = test system: MALME-3M melanoma
[6] = test system: U251 CNS
[7] = test system: COLO 205 colon
[8] = test system: HT29 colon
[9] = test system: EKVX NSCLC
[10] = test system: SN12C renal
[11] = test system: SNB-19 CNS
[12] = test system: IGROV1 ovarian
[13] = test system: UACC-62 melanoma
[14] = test system: OVCAR-5 ovarian
[15] = test system: MOLT-4 leukemia
[16] = test system: HCT-116 colon
[17] = test system: OVCAR-3 ovarian
[18] = test system: HCC-2998 colon
[19] = test system: RXF 393 renal
[20] = test system: RPMI-8226 leukemia

SMILES	TGI [1] [µM]	TGI [2] [µM]	TGI [3] [µM]	TGI [4] [µM]	TGI [5] [µM]	TGI [6] [µM]	TGI [7] [µM]	TGI [8] [µM]	TGI [9] [µM]	TGI [10] [µM]	TGI [11] [µM]	TGI [12] [µM]	TGI [13] [µM]	TGI [14] [µM]	TGI [15] [µM]	TGI [16] [µM]	TGI [17] [µM]	TGI [18] [µM]	TGI [19] [µM]	TGI [20] [µM]
CC1=NC(=Cc2cc(Br)cc(Br)c2)C(=O)N1n1c(-c2ccccc2)nc2ccccc2c1=O	> 100	> 100	> 100	> 100	> 100	> 100	> 100	> 100	> 100	> 100	> 100	> 100	> 100	> 100	> 100	> 100	> 100	> 100	> 100	> 100
COC(=O)C1=C(C(=O)Nc2cccnc2Cl)N(c2ccc(OC)cc2[N+](=O)[O-])C(c2ccc(C)cc2)=CC1c1ccc(OC)cc1OC (stereo not given)	62.1	> 76.2	40.9	52.5	53.3	40.3	31.9	47.9	> 81.9	35	> 88.6	33.7	> 100	> 84.9	49.3	98.7	43.7	27.8	22.2	21.5

Reference: PubChem BioAssay (NCI)
